Experiments:
Göttingen Minipigs = test: 14-day dermal and systemic toxicity study in Göttingen Minipigs; details: anhydrous composition, 14 days, dermal
Protocol: (§1) All groups received 2 mL of gel formulation, once a day, for 14 consecutive days, applied to approximately 10% of their body surface area on their back.
(§2) The study included daily observations of the site of application and scoring of erythema and edema (if present), daily general examinations including heart rate as well as pupil size assessments at days 1, 2, 3, 5, 7, 10 and 14. The frequent observations of heart rate and pupil size were intended to identify any potential systemic anticholinergic effect. Main organs were evaluated during necropsy and histopathology evaluation was completed for treated and untreated skin. Blood samples for chemistry and hematology analysis were collected as well as PK samples.
The estimated BBI-4000 dose applied to the skin in this study was 40 mg/kg/day for Group 3 and 20 mg/kg/day for Group 2.

[1] = HPLC assay and impurities of aqueous BBI-4000 gel formulations at differing pH; format: physicochemical; details: Day 7
Protocol: The standards were prepared in duplicate by weighing 2.0±0.1 mg of BBI-4000 into 1 mL volumetric flasks. Dissolved and diluted to volume with acetonitrile and mixed by inversion.
Gel samples were prepared in duplicate at a target concentration of 2 mg/ml in a 5-mL volumetric flask. Added 1.5 ml H2O and mixed to disperse the sample. Diluted to volume with acetonitrile and filtered an aliquot through a syringe filter.
The liquid chromatographic system was set-up as follows: • HPLC Column: XBridge Shield RP18, 4.6×150 mm, 3.5 μm • Column Temp.: 25±1° C. • Sample Temp.: ambient • Flow Rate: 1.5 mL/min • Injection Volume: 10 μL • UV Detection: 220 nm • Run Time: 20 minutes

[2] = tested on: subjects with axillary hyperhidrosis; test: Study BBI-4000-CL-101: efficacy, gravimetric sweat production and HDSS; format: in vivo, human
Protocol: Efficacy was assessed by the change in gravimetrically measured sweat production and the change in hyperhidrosis disease severity scale (HDSS) from baseline to Day 15 (end of therapy).
For the gravimetric assessment, sweat production was measured by placing filter paper (pre-weighed) on the axilla for 5 minutes while the subject was in a semi-reclining position at room temperature. The filter paper was covered with plastic during exposure to the axilla, and was then weighed following the 5-minute exposure period to calculate the amount of sweat produced.
For the HDSS, subjects rated the severity of their hyperhidrosis on a 4-point scale (1,2, 3, or 4) based on the level of interference with their daily activities.

[3] = Toxicokinetics (PK samples) in the 14-day Göttingen Minipig study; format: in vivo, Göttingen Minipigs
Protocol: as §1, §2

[4] = Stability of approximately 2% BBI-4000 in four solvent systems (HPLC); format: physicochemical; details: for BBI-4000 Assay, Change from Baseline (40° C./75%), reduction: Day 7
Protocol: Various formulations of approximately 2% BBI-4000 were made and their stabilities assessed. The solvent systems were as follows: • (a) solvent content: 100% water; • (b) solvent content: 60% water/40% ethanol; • (c) solvent content: 30% water/70% ethanol; • (d) solvent content: 100% ethanol. Each sample was assessed at baseline; after 7 days at 25° C./60% humidity; and after 7 days at 40° C./75% humidity. The percentage change from baseline for 40° C. after 7 days was calculated in each case. HPLC analysis was conducted as described in EXAMPLE 2 below.
There is clearly a dramatic difference in the stability of the anhydrous ethanol formulation compared to the water-containing formulations.

[5] = solvent 100% ethanol, Day 7 @ 25° C./60%

CCOC(=O)C[N@+]1(C)CCC(OC(=O)[C@](O)(c2ccccc2)C2CCCC2)C1.[Br-] (stereo partly drawn) [BBI-4000, (2R,3′R) 3-(2-cyclopentyl-2-phenyl-2-hydroxyacetoxy)-1-(ethoxycarbonylmethyl)-1-methylpyrrolidinium bromide]
Histopathology analysis of treated skin (Göttingen Minipigs): unremarkable and identical to non-treated and vehicle treated skin
Stability of the aqueous formulation system, in words [1]: lack of stability of this formulation system
Comparison of 10% gel and 5% gel (sweat reduction and HDSS improvement) ([2]; Cohort 2, small sample size, no definitive conclusion): BBI-4000 10% gel performed better than BBI-4000 5% gel
Subjects reporting a >2-point improvement in HDSS ([2]; Day 15, 5% and 10% gel aggregated (8 of 12)): 67%
Proportion of subjects with at least a 50% reduction in sweat production ([2]; Day 15, 5% and 10% gel aggregated (9 of 12)): 75%
Time at which the highest concentration was observed ([3]; after Day-14 dosing, minipig receiving 20% BBI-4000): 2 h
Systemic exposure (PK analysis) ([3]; dermal 10% and 20% gel, 14 days): variable, dose related systemic exposure
Stability in words: baseline amount of BBI-4000 retained ([4]; 100% ethanol (absolute or anhydrous), 7 days at 40° C.): essentially maintained the baseline amount of BBI-4000
BBI-4000 Assay, Change from Baseline (40° C./75%), reduction ([4]; solvent 30% water, 70% ethanol): reduction 5%
BBI-4000 Main Hydrolysis Products (RRT-0.79-0.84) ([4]; solvent 30% water, 70% ethanol, Day 7 @ 25° C./60%): 0.84%
BBI-4000 Main Hydrolysis Products (RRT-0.79-0.84) ([4]; solvent 30% water, 70% ethanol, Day 7 @ 40° C./75%): 3.50%
BBI-4000 Main Hydrolysis Products (RRT-0.79-0.84) ([4]; solvent 30% water, 70% ethanol, baseline): 0
BBI-4000 Assay, Change from Baseline (40° C./75%), reduction ([4]; solvent 60% water, 40% ethanol): reduction 5%
BBI-4000 Main Hydrolysis Products (RRT-0.79-0.84) ([4]; solvent 60% water, 40% ethanol, Day 7 @ 25° C./60%): 0.83%
BBI-4000 Main Hydrolysis Products (RRT-0.79-0.84) ([4]; solvent 60% water, 40% ethanol, Day 7 @ 40° C./75%): 3.40%
BBI-4000 Main Hydrolysis Products (RRT-0.79-0.84) ([4]; solvent 60% water, 40% ethanol, baseline): 0
BBI-4000 Assay, Change from Baseline (40° C./75%), reduction ([4]; solvent 100% ethanol): reduction <1%
BBI-4000 Assay [4, 5]: 2%
BBI-4000 Main Hydrolysis Products (RRT-0.79-0.84) [4, 5]: 0
BBI-4000 Main Hydrolysis Products (RRT-0.79-0.84) ([4]; solvent 100% ethanol, Day 7 @ 40° C./75%): 0
BBI-4000 Main Hydrolysis Products (RRT-0.79-0.84) ([4]; solvent 100% ethanol, baseline): 0
BBI-4000 Assay, Change from Baseline (40° C./75%), reduction ([4]; solvent 100% water): reduction 9.5%
BBI-4000 Main Hydrolysis Products (RRT-0.79-0.84) ([4]; solvent 100% water, Day 7 @ 25° C./60%): 1.90%
BBI-4000 Assay ([4]; solvent 100% water, Day 7 @ 40° C./75%): 1.80%
BBI-4000 Main Hydrolysis Products (RRT-0.79-0.84) ([4]; solvent 100% water, baseline): 0

Source: patent publication US12398102B2, “Formulation for soft anticholinergic analogs” (BODOR LABORATORIES, INC., priority 2014, dated 2025)
